Reference: US20210380548A1, “Fused [1,2,4]Thiadiazine Derivatives Which Act as KAT Inhibitors of the MYST Family” (CTxT Pty Limited, priority 2017, published 2021)

Columns and labels:
MOZ-KAT6A = target: T1, MOZ-KAT6A (Homo sapiens, UniProt Q92794, A567V); assay: Acetyltransferase biochemical assay (AlphaScreen), KAT6A; settings: Table 2 (MOZ-KAT6A); 10 μM Acetyl coenzyme A, histone H3.1, 5 nM enzyme
T1 construct: encoding amino acid residues 507 to 778 (Uniprot Q92794-1) of human KAT6A; made in house; host or cells: E. coli BL21 DE3
T1 sequence (Q92794 507-778 A567V limits assumed): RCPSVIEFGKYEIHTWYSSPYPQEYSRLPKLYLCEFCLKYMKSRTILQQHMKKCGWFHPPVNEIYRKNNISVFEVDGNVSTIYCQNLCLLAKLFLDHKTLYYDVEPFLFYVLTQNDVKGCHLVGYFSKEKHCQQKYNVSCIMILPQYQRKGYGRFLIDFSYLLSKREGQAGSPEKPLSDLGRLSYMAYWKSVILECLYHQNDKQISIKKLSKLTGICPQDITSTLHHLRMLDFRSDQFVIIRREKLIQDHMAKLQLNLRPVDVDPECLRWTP

MOF-KAT8 [1] = target: T2, MOF-KAT8 (Homo sapiens, UniProt Q9H7Z6); assay: Acetyltransferase biochemical assay (AlphaScreen), KAT8; settings: Table 4 (MOF-KAT8); 0.4 μM Acetyl coenzyme A, histone H4, 20 nM enzyme
T2 sequence (Q9H7Z6 177-447): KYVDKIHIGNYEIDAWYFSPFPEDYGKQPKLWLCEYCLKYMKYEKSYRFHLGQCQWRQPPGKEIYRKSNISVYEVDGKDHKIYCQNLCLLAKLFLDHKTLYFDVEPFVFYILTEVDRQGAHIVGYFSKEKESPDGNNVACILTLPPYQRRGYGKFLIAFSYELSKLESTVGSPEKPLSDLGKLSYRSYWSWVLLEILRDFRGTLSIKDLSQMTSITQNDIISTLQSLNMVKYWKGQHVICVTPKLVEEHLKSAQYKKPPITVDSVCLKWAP

[2] = system: histone H2A.Z Lysine 7 acetylation (TIP60 mediated) in U2OS cells; assay: H2A.Z Lysine 7 Acetylation Biomarker Assay (96 well, U2OS); assay type: cell-based; settings: Homo sapiens, Table 7, H2A.Z K7ac, 24 hours incubation, serum free medium
Description: To discover a global TIP60/KAT5 cellular biomarker useful for monitoring PD responses of TIP60 inhibition in vitro and in vivo, various histone modifications were assessed for TIP60 dependence through genetic (TIP60 siRNA and CRISPR/Cas9) or TIP60 pharmacological inhibition. This analysis clearly identified acetylation of the histone variant H2A.Z at Lysine 7 (H2A.ZK7ac) as a global histone mark which is TIP60-dependent in both human and mouse cells. To a lesser extent, TIP60 also acetylated lysine 4 and 11 of H2A.Z.
Compounds may be tested for their ability to inhibit the histone H2A.Z Lysine 7 acetylation biomarker (which is TIP60 mediated) in the following assay:
The cell line U2OS was seeded at a density of 9,000 cells per well in 96 well optical quality tissue culture plates in RPMI medium and 10% foetal bovine serum, and allowed to adhere for 24 hours under standard culture conditions (37 degree Celsius, 5% CO2). At the end of this period the cells were washed with serum free medium. Compound dilutions prepared in DMSO were added to the serum free medium, with negative control wells reserved for treatment with DMSO only and positive controls receiving a potent inhibitor compound (e.g. Example 146) at 20 μM concentration. After incubation for 24 hours, the cells were fixed with 3.7% formaldehyde in PBS for 20 minutes at room temperature, washed with phosphate buffer saline containing 0.1% Tween 20 and blocked with Odyssey blocking buffer (LI-COR, Lincoln, Nebr.) containing 0.1% TritonX100. Anti-H2A.Z K7ac specific antibody (Abcam) in Odyssey blocking buffer containing 0.1% Tween 20 was added and incubated for 14 hours at 4 degree Celsius. After washing, a secondary antibody labelled with Alexa647 dye (LifeTechnologies) and Hoechst 33342 (10 μM, SigmaAldrich) were added for 1 hour incubation. Plates were washed and read on a PerkinElmer Phenix high content imaging platform. Using a Columbus image analysis pipeline, individual nuclei were located by Hoechst 33342 stain and the acetylation level was calculated from the Alexa647-related intensity in the same area. The resulting mean intensity per cell was directly converted to percent inhibition relative to controls on the same plate and the data fitted against a four-parameter logistic model to determine the 50% inhibitory concentration (IC50).

MOF-KAT8 [3] = target: T2, MOF-KAT8; assay: Revised Acetyltransferase Biochemical Assay, KAT8
[4] = system: histone H3K23 acetylation (KATE mediated) in U2OS cells; assay: Histone H3 Lysine 23 Acetylation Biomarker Assay (U2OS); assay type: cell-based; settings: Homo sapiens, 96 well, 24 hours incubation
Summary of the method: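 U2OS cells were treated with compound for 24 h, then fixed and immunostained for H3K23ac with Hoechst nuclear counterstain. Per-nucleus Alexa647 intensity was quantified by high-content imaging and converted to % inhibition against DMSO and 10 μM reference-inhibitor controls. IC50 was derived from a four-parameter logistic fit.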

HBO-KAT7 = target: T3, HBO-KAT7 (Homo sapiens, UniProt O95251); assay: Acetyltransferase biochemical assay (AlphaScreen), KAT7; settings: Table 3 (HBO-KAT7); 0.4 μM Acetyl coenzyme A, histone H3.1, 40 nM enzyme
T3 construct: encoding amino acid residues 325 to 611 (Uniprot 095251-1) of human KAT7; made in house; host or cells: E. coli BL21 DE3 RIL
T3 sequence (O95251 with tags, fused parts or gaps): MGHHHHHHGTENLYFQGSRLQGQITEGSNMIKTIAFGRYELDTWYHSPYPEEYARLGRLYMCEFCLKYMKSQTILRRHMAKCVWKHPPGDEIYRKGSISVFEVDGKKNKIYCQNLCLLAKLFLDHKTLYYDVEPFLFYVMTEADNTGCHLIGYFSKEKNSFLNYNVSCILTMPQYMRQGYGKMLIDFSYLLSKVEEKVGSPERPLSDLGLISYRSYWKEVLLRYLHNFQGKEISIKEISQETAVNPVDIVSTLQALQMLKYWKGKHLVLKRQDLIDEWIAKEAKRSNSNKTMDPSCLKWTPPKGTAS

QKF-KAT6B = target: T4, QKF-KAT6B (Homo sapiens, UniProt Q8WYB5); assay: Revised Acetyltransferase Biochemical Assay, KAT6B; settings: 8 nM KAT6B, 1 μM AcCoA, 100 nM histone H3.1, 90 min
T4 construct: purchased SignalChem K315-381BG
T4 sequence (Q8WYB5 whole entry): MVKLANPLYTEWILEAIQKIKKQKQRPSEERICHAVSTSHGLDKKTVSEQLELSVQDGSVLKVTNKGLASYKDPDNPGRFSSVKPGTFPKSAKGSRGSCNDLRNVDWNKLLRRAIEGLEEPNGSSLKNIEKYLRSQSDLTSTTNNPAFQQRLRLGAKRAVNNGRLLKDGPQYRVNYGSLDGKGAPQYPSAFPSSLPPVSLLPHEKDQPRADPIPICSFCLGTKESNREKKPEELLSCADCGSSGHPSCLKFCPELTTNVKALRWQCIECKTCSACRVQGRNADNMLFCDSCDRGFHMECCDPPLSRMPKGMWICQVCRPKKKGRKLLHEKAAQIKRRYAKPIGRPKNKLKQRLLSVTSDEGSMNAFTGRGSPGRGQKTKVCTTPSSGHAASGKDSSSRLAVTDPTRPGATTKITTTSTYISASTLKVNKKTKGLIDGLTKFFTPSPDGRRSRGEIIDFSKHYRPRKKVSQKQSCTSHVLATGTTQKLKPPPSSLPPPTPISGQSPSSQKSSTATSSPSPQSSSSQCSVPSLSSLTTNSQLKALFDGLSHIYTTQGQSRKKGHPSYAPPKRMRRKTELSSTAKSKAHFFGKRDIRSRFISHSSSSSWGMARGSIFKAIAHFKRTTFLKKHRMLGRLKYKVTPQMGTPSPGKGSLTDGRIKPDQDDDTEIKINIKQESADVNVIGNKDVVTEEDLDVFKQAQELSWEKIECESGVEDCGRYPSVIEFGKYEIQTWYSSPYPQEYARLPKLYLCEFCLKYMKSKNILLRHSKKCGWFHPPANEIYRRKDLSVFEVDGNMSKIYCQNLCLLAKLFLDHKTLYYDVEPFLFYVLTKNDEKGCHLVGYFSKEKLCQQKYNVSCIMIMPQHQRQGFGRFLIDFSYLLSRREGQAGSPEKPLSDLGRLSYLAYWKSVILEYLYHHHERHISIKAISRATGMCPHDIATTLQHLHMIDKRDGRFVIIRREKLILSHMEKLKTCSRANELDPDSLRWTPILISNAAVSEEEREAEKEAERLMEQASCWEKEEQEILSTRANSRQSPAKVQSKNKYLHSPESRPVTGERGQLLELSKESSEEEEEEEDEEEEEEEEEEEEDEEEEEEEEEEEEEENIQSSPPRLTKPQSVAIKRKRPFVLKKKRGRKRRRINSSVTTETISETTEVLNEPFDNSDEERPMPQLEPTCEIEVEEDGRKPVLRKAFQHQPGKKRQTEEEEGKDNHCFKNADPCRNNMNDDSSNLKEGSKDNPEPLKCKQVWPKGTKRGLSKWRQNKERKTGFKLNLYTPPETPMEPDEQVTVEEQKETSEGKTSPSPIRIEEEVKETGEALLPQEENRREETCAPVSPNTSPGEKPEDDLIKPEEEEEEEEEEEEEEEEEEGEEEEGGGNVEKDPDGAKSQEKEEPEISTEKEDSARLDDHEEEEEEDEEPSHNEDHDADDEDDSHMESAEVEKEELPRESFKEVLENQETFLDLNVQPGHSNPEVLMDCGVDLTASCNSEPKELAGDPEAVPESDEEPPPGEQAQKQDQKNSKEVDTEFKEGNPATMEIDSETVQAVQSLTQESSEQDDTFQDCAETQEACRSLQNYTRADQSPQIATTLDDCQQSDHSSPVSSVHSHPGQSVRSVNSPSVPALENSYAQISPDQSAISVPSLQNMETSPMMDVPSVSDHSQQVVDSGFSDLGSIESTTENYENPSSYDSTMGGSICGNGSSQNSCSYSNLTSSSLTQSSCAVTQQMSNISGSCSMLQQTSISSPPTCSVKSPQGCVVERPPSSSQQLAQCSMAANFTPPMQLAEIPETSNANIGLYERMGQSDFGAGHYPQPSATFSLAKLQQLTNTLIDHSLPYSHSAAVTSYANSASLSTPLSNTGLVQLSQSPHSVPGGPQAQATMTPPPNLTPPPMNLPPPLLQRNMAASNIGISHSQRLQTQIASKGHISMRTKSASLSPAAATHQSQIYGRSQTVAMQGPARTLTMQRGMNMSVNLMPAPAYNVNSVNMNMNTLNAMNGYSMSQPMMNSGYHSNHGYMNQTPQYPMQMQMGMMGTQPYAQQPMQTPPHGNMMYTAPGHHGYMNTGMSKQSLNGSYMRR
Description: KAT6B was obtained from SignalChem, catalog ID: K315-381BG

Row | Structure (SMILES) | IC50 (MOZ-KAT6A) | IC50 (MOF-KAT8 [1]) | IC50 [2] | IC50 (MOF-KAT8 [3]) | IC50 [4] | IC50 (HBO-KAT7) | IC50 (QKF-KAT6B)
1 | O=C(NCC(c1ccccc1)c1ncco1)C1=Nc2ccc(Br)cc2S(=O)(=O)N1 (centres unmarked) [Example 1, 7-Bromo-N-(2-(oxazol-2-yl)-2-phenylethyl)-2H-benzo[e][1,2,4]thiadiazine-3-carboxamide 1,1-dioxide] | 0.0241 µM | 14.6 µM | 2.18 µM | 4.54 µM | 0.064 µM | 0.0638 µM | 0.06 µM
2 | O=C(NCC(c1ccccc1)c1ncco1)C1=Nc2ccccc2S(=O)(=O)N1 (centres unmarked) [Example 46, N-(2-(oxazol-2-yl)-2-phenylethyl)-2H-benzo[e][1,2,4]thiadiazine-3-carboxamide 1,1-dioxide] | 0.324 µM | 88.2 µM | 30 µM | 99.4 µM | 0.178 µM | 2.65 µM | 0.589 µM
3 | O=C(NCCc1ccccc1-n1nccn1)C1=Nc2ccc(I)cc2S(=O)(=O)N1 [Example 60, N-(2-(2H-1,2,3-triazol-2-yl)phenethyl)-7-iodo-2H-benzo[e][1,2,4]thiadiazine-3-carboxamide 1,1-dioxide] |  |  | 2.06 µM | 24 µM | 1.42 µM | 0.555 µM | 0.039 µM
4 | O=C(NCCc1ccccc1OC(F)F)C1=Nc2ccc(I)cc2S(=O)(=O)N1 [Example 91] | 0.594 µM | 12.1 µM | 10 µM | 21.1 µM | 7.69 µM | 0.339 µM | 0.35 µM
